Experimental data taken from US20040200144A1, “Plant growth regulator and a method of producing the regulator” (Dainichiseika Color & Chemicals Mfg. Co., Ltd., priority 2003, published 2004).

Columns and labels:
Type in all cases: in vivo
geranium young plants = test: Dwarfing test of geranium young plant; conditions: for Plant Height / Dwarfing Rate: 100 ml per pot on 3rd day, measured 44th day; for Dwarfing Rate: vs comparative group
From the text: Dwarfing rate (%)=[(the plant height of the comparative group)−(the plant height of an addition group)/the plant height of the comparative group]×100 In addition, “plant height” in all the tables below was an average of heights from a surface of the soil of a pot used in each test to a head portion of the plant. 160 g of cinnamic acid, 80 g of dispersant (lignin sulfonic sodium) and 293 g of water were mixed, 1,800 g of glass beads (with diameters of 1 to 1.25 mm) were further added, the resultant was added into a vessel of a dispersion apparatus (RM test sand mill with six parallel barrels) and underwent dispersion processing at 120 rpm for three hours, and 30% cinnamic acid dispersion (with the average diameter of cinnamic acid of 0.3 μm) was prepared. The dispersion was diluted with distilled water 300 times or 3,000 times, and thus 0.1% cinnamic acid dispersion and 0.01% cinnamic acid dispersion were prepared, respectively. 30 pots of geranium young plants each with 10 to 12 leaves and a height of 7 cm ware purchased, and placed in a built-up indoor aluminum greenhouse (440×840×1500 mm) at 25° C. On the 3rd day, the cinnamic dispersions as described above were added to the geranium pots. Among 30 pots, 10 pots were prepared as a 0.01% cinnamic acid dispersion addition group, and 100 ml of the 0.01% cinnamic acid dispersion was added to the nursery soil of each pot. Another 10 pots were prepared as a 0.1% cinnamic acid dispersion addition group, and 100 ml of the 0.1% cinnamic acid dispersion was added to the nursery soil of each pot. Remaining 10 pots were prepared as a comparative group, and instead of the cinnamic dispersion, 100 ml of water was added to each pot. Then, the cultivation was continued on the pots in each group under general conditions. The cultivation was continued on geraniums of the pots in each group, and on the 24th day, geraniums in each group started blooming. The cultivation was further continued. On the 44th day after the placement, heights of geraniums of pots in each group were measured, the dwarfing rate (%) was calculated, and the dwarfing effect of cinnamic acid dispersion on geranium young plants was examined. From the results in Table 2, it became evident that the cinnamic acid dispersions are effective in dwarfing geranium young plants.

[1] = tested on: Cucumis melo var. makuwa young plants; test: Dwarfing test of Cucumis melo var. makuwa young plant; conditions: for Plant Height / Dwarfing Rate: 5 ml per cell on 7th day, measured 27th day; for Dwarfing Rate: vs comparative group
Protocol: 50 g of sodium tripolyphosphate was dissolved in 400 ml of distilled water at 80° C., 17.5 g of cinnamic acid was added to the sodium tripolyphosphate solution and dissolved by stirring, the resultant solution was diluted with distilled water until the total volume of solution was 500 ml, and thus 3.5% cinnamic acid aqueous solution (pH 6.5) was prepared. The aqueous solution was further diluted with distilled water 70 times or 17.5 times, and 0.05% cinnamic acid aqueous solution and 0.2% cinnamic acid aqueous solution were prepared, respectively.
Nursery soil for house use was filled into paper joint pots (each with 24 cells: 34×43×50 mm/cell), water was sufficiently given to the soil, and seeds of carrots were sowed. After seeding, the pot was placed in the same greenhouse as described above to sprout. Subsequently, on the 5th day, the cinnamic aqueous acid solutions were added to the nursery soil in the joint pots. One of the joint pots (24 cells) was prepared as a 0.05% cinnamic acid aqueous solution addition group, and 5 ml of the 0.05% cinnamic acid aqueous solution was added to the nursery soil of each cell. Another one of the join pots was prepared as a 0.2% cinnamic acid aqueous solution addition group, and 5 ml of the 0.2% cinnamic acid aqueous solution was added to the nursery soil of each cell. The other one of the joint pots was prepared as a comparative group in which 5 ml of water is added to each cell, instead of the cinnamic acid aqueous solution. Subsequently, the cultivation of carrot young plants in each group was continued under general conditions. On the 27th day, the heights of young plants in each group were measured, the dwarfing rate (%) was calculated, and the dwarfing effect of cinnamic acid aqueous solution on carrot young plants was examined. […].
In the same way as in Example 12 except that seeds of tomato were sowed, and that the cinnamic acid solutions were added to the nursery soil of the joint pot on the 7th day, the dwarfing effect of cinnamic acid aqueous solution on tomato young plants was examined. […].
In the same way as in Example 17 except that seeds of watermelon were sowed, and that plant heights were measured on the 27th day, the dwarfing effect of cinnamic acid aqueous solution on watermelon young plants was examined. […].
In the same way as in Example 21 except that seeds of Cucumis melo var. makuwa were sowed, the dwarfing effect of cinnamic acid aqueous solution on Cucumis melo var. makuwa young plants was examined. […]

Poinsettia young plants = test: Dwarfing test of poinsettia young plant; conditions: for Plant Height / Dwarfing Rate: 100 ml per pot to nursery soil on 49th and 78th days, measured 93rd day; for Dwarfing Rate: vs comparative group
Protocol: 18.4 g of potassium hydroxide was dissolved in 400 ml of distilled water at 20° C., 50 g of cinnamic acid was added to the potassium hydroxide solution and dissolved by stirring, the resultant solution was diluted with distilled water until the total volume of solution was 500 ml, and thus a cinnamic acid aqueous solution (pH 8.8) was prepared in a concentration of 10%. The aqueous solution was further diluted with distilled water 33.3 times or 20 times, and thus a cinnamic acid aqueous solution in a concentration of 0.3% or 0.5% was prepared, respectively.
Poinsettia young plants with heights of about 10 cm were planted and fixed in pots (diameter of 14.5 cm and depth of 14.5 cm), and cultivated continuously. On the 49th and 78th days, 100 ml of 0.3% or 0.5% cinnamic acid aqueous solution prepared as described above was added to the nursery soil of each of 30 pots, and thus 0.3% cinnamic acid aqueous solution addition group and 0.5% cinnamic acid aqueous solution addition group were obtained. Further, 30 pots were prepared as a comparative group on which general watering was performed. The cultivation of young plants of each group was continued. On the 93rd day, the length from a surface of the soil of each cultivation pot to a head portion of the poinsettia young plant was measured, the dwarfing rate (%) was calculated using the following equation, and thus the dwarfing effect of cinnamic acid aqueous solution was examined (the same way was applied to following examples).
Dwarfing rate (%)=[(the plant height of the comparative group)−(the plant height of an addition group)/the plant height of the comparative group]×100
In addition, “plant height” in all the tables below was an average of heights from a surface of the soil of a pot used in each test to a head portion of the plant.

O=C(O)C=Cc1ccccc1 [cinnamic acid]
Plant Height (geranium young plants; 0.01% dispersion): 13.5 cm | Dwarfing Rate (geranium young plants; 0.01% dispersion): 12.9% | Plant Height (geranium young plants; 0.1% dispersion): 6.1 cm | Dwarfing Rate (geranium young plants; 0.1% dispersion): 60.6% | dwarfing effect (geranium young plants; geranium young plants, 0.01% and 0.1% dispersions): effective | Plant Height ([1]; 0.05% aqueous solution): 6.1 cm | Dwarfing Rate ([1]; 0.05% aqueous solution): 6.2% | Plant Height ([1]; 0.2% aqueous solution): 4.7 cm | Dwarfing Rate ([1]; 0.2% aqueous solution): 27.7% | dwarfing effect ([1]; Cucumis melo var. makuwa young plants, 0.05% and 0.2% aqueous solutions): effective | Plant Height (Poinsettia young plants; 0.3% aqueous solution): 19.2 cm | Dwarfing Rate (Poinsettia young plants; 0.3% aqueous solution): 17.6% | Plant Height (Poinsettia young plants; 0.5% aqueous solution): 18.1 cm | Dwarfing Rate (Poinsettia young plants; 0.5% aqueous solution): 22.3% | dwarfing effect (Poinsettia young plants; poinsettia young plants, 0.3% and 0.5% aqueous solutions): effective
